Assays:
CMV strain AD-169 = assay: CPE assay, CMV AD-169 in HFF cells; format: cell-based; settings: CMV AD-169, HFF (human foreskin fibroblast), without 24 h drug pretreatment
Source text: *CPE assay, all others are plaque reduction assays.

CMV strain Davis = settings: MRC-5, plaque reduction, 24 h drug pretreatment
Method: The following procedures were then used to determine inhibitory effects of AV-9 on the replication of CMV. First, confluent monolayers of the human diploid cell line, MRC-5 (ATCC# CCL 171) in 24 well cell culture plates were pretreated with specified concentrations (20 μM, 10 μM, 5 μM, 2.5 μM, 1.0 μM, 0.5 μM and 0.0 μM) of AV-9 for 24 hours. This was accomplished by diluting the stock peptide solution in growth medium (10% fetal bovine serum and 10 μg/ml gentamicin in Dulbecco's MEM (DMEM)) used to overlay the monolayers.
After pretreatment with AV-9, the monolayers were overlaid with 0.1 ml log10 dilutions of virus (CMV strain AD-169) ranging from 10^-1 to 10^-6. Virus was then allowed to adsorb for 1 hour at 37° C. The virus inoculum was removed and the monolayers were overlayed with DMEM containing 2% FBS, 10 ug/ml gentamicin and a specified concentration of AV-9. Virus was next allowed to replicate for 7 to 10 days until the plaques were judged to be well developed, and then the monolayers were fixed and stained with a solution of 1% crystal violet in 1% formaldehyde,70% ethanol. Finally, plaques (each representing a single viable virion) were counted and checked microscopically.
(§1) In a like manner, plaque reduction assays were also performed against other CMV strains and another CMV host, with comparison against ganciclovir (GCV) and foscarnet (FCV).

CMV strain Towne = format: cell-based, human CMV; settings: HFF, plaque reduction, without 24 h drug pretreatment
Method: The following procedures were then used to determine inhibitory effects of AV-9 on the replication of CMV. […] This was accomplished by diluting the stock peptide solution in growth medium (10% fetal bovine serum and 10 μg/ml gentamicin in Dulbecco's MEM (DMEM)) used to overlay the monolayers.
[…] Virus was then allowed to adsorb for 1 hour at 37° C. The virus inoculum was removed and the monolayers were overlayed with DMEM containing 2% FBS, 10 ug/ml gentamicin and a specified concentration of AV-9. Virus was next allowed to replicate for 7 to 10 days until the plaques were judged to be well developed, and then the monolayers were fixed and stained with a solution of 1% crystal violet in 1% formaldehyde,70% ethanol. Finally, plaques (each representing a single viable virion) were counted and checked microscopically.
as §1

[1] = mouse, in vivo
Method: Ten mice were injected intravenously in the tail vein with 0.25 mL of a solution of 26 μg of ^14 C-labelled compound in 10 mL PBS, and ten mice were given the same dose by subcutaneous injection in the abdomen. One mouse from each group was sacrificed at the time points noted in FIGS. 1 and 2, and the noted organs were weighed and digested to homogeneity for scintillation counting. Counts were measured and used to calculate the amount and concentration of drug in each organ.

[2] = tested on: Smith strain of murine CMV; assay: murine CMV infection in cyclophosphamide-immunosuppressed mice; format: in vivo, BALB/c mice; settings: for Surv/Total / Mean Day to Death ± S.D.: infected mice
Source text: This immunosuppression model mimics the human patient situation, wherein the HCMV-induced disease in immunosuppressed individuals can often be fatal. The particular model used for evaluating potential antiviral activity has been described by Smee et al in J. Infect. Dis., 1991, 164: 958.
The Smith strain of murine CMV, obtained originally from the American Type Culture Collection (Rockville, Md.) was used. A mouse salivary gland preparation was used for the virus pool. An inoculation of 2×10^4 plaque forming units of the virus was used in the antiviral study. Female BALB/c mice weighing 10-12 g were quarantined 24 hr prior to use, and maintained on Wayne Lab Blox and tap water ad libitum the duration of the study.
Ganciclovir (DHPG) was purchased from a commercial source, and cyclophosphamide was purchased from Sigma Chemical Co. (St. Louis, Mo.).
To determine tissue virus titre, homogenates of infected mouse organs were titrated for virus using C127/I cells in 96-well microplates. Each tissue sample was homogenized and titrated separately with 3 micro wells used per dilution; plates were read by microscopic examination for viral-induced cytopathic effect, with 50% end points determined by the Reed-Muench method. Mean viral titers were expressed at 50% cell culture infectious doses (CCID50)/gram of tissue.
For statistical evaluation, increases in mean day to death and reductions in viral titers were assessed using the two-tailed Mann-Whitney U test. Total survivor increases were evaluated by chi square analysis with Yates'.

[3] = tested on: ganciclovir-resistant CMV strains 759^r D100 and GDG^r K17 and foscarnet-resistant CMV strains PFA^r D100 and PFA^r B300; settings: range over strains 759^r D100, GDG^r K17, PFA^r D100, PFA^r B300; MRC-5; drug pre- and post-infection
Method: This stock solution was subsequently diluted in cell culture medium to obtain the test concentrations used in the study. Ganciclovir (GCV) was dissolved in sterile, deionized water, and the drug concentration measured spectrophotometrically (7.8mM). Foscarnet (phosphonoformic acid, PFA) was dissolved in sterile, deionized water to a final concentration of 100 mM. Aliquots of the stock solutions were stored at -70° C.
Drug-resistant human CMV strains 759^r D100, GDG^r K17, PFA^r D100 and PFA^r B300 were obtained from Dr. Donald M. Coen, Harvard Medical School, Boston, Mass.
The drug stock solutions were diluted with fresh culture medium to obtain the desired test concentrations in the range 0.5-2500 μM.
MRC-5 cells (4-5×10^5 per well) were grown for 24 hours at 37° C. in 5% CO2 atmosphere in D-MEM/F-12FBS medium containing varying concentrations of drug. At the end of the pre-treatment period, the cells were infected with a suspension containing 50 plaque forming units of CMV (MOI=0.0001). The virus was allowed to absorb for 60 minutes at 37° C. in the absence of drug, at which time the virus innoculum was washed away, and the cells fed with fresh growth medium containing drug. […] Vital plaques were counted under a microscope after removing the culture medium from the wells, staining the cells with 1.1% Crystal Violet solution, and washing twice with tap water. […]

[4] = toxicity control mice, immunosuppressed, uninfected; settings: for Mean Body Weight Change: start of treatment to 24 hr after final treatment; for Surv/Total: toxicity controls
Method: The mice were immunosuppressed by intraperitoneal (i.p.) injection with 100 mg/kg/day of cyclophosphamide administered on days -1, +3, +6, +10, +14 and +18 relative to virus inoculation. […] In a second portion of the study, the compound was administered i.p. in a dose of 0.1 mg/kg/day once daily from day -2 through +10. Ganciclovir in a dose of 50 mg/kg/day was injected i.p. once daily for 10 days beginning 24 hr post-virus exposure (days +1→+10). A total of 15 infected mice/dose were used. […] Five toxicity control mice were used at each dose; these mice were treated in parallel with the infected mice, and were weighed on the initial day of treatment and again 24 after the final treatment. […] Normal controls were weighed and held in parallel with the toxicity controls.

[5] = 0.2 mg/kg/day i.p. every other day, day 9
[6] = 0.2 mg/kg/day i.p. every other day, 9 days after virus challenge
[7] = 0.07 mg/kg/day i.p., days -2,0,+2,+4,+6,+8,+10
[8] = 0.1 mg/kg/day i.p., daily days -2 through +10
[9] = 0.2 mg/kg/day i.p., days -2,0,+2,+4,+6,+8,+10
[10] = 0.7 mg/kg/day i.p., days -2,0,+2,+4,+6,+8,+10
[11] = 2.0 mg/kg/day i.p., days -2,0,+2,+4,+6,+8,+10

## CC(=O)N[C@H](CCCNC(=N)N)C(=O)N[C@H](CCCNC(=N)N)C(=O)N[C@H](CCCNC(=N)N)C(=O)N[C@H](CCCNC(=N)N)C(=O)N[C@H](CCCNC(=N)N)C(=O)N[C@H](CCCNC(=N)N)C(=O)N[C@H](CCCNC(=N)N)C(=O)N[C@H](CCCNC(=N)N)C(=O)N[C@H](CCCNC(=N)N)C(N)=O [AV-9, acetyl-[D-Arg]9 -NH2]
CMV strain AD-169
  IC50: 5.8 µM
CMV strain Davis
  IC50: 2.3 µM
CMV strain Towne
  IC50: 8.7 µM
[1]
  speed of distribution to tissues: rapid distribution of drug to tissues
  tissue distribution, organs with highest levels: highest and most prolonged levels are attained in the liver, followed by the kidneys and spleen
[2]; [5]
  animals without detectable virus in lungs: one had no detectable virus
  animals without detectable virus in spleen, of the five sampled: three had no detectable virus
  effect on salivary gland virus titers: No effect
  reduction of mean lung virus titer compared to placebo-treated controls: 0.6 log10
[2]; [6]
  Tissue Virus Titer ± S.D., Lung: 3.3 ± 1.9 log10 CCID50/g
  Tissue Virus Titer ± S.D., Salivary Gland: 7.6 ± 1.2 log10 CCID50/g
  Tissue Virus Titer ± S.D., Spleen: 1.5 ± 2.26 log10 CCID50/g
[2]; [7]
  Surv/Total: 0/8
[2]; 0.07 mg/kg/day i.p., days -2,0,+2,+4,+6,+8,+10, P<0.05 vs saline
  Mean Day to Death ± S.D.: 13.4 ± 2.6 days
[2]; [8]
  Mean Day to Death ± S.D.: 11.3 ± 0.5 days
  Surv/Total: 0/8
[2]; [9]
  Surv/Total: 0/8
[2]; 0.2 mg/kg/day i.p., days -2,0,+2,+4,+6,+8,+10, P<0.01 vs saline
  Mean Day to Death ± S.D.: 18.5 ± 3.7 days
[2]; [10]
  Mean Day to Death ± S.D.: 11.6 ± 1.6 days
  Surv/Total: 0/7
[2]; [11]
  Mean Day to Death ± S.D.: 12.1 ± 1.3 days
  Surv/Total: 0/7
[3]
  IC50: 1.3 to 2.1 µM
[4]; 0.07 mg/kg/day i.p. every other day
  Mean Body Weight Change: 2.7 g
[4]; 0.1 mg/kg/day i.p. daily days -2 to +10
  Mean Body Weight Change: 3.1 g
[4]; 0.2 mg/kg/day i.p. every other day
  Mean Body Weight Change: 2.2 g
[4]; 0.7 mg/kg/day i.p. every other day
  Mean Body Weight Change: 2.4 g
[4]; 2.0 mg/kg/day i.p. every other day
  Mean Body Weight Change: 1.9 g
[4]; all doses
  other signs of toxicity (hunching, prostration, ruffled fur, tremors): No other signs of toxicity
[4]; all doses, Table 3
  toxicity, overall assessment: reasonably non-toxic
[4]; [7]
  Surv/Total: 5/5
[4]; [8]
  Surv/Total: 5/5
[4]; [9]
  Surv/Total: 5/5
[4]; [10]
  Surv/Total: 5/5
[4]; [11]
  Surv/Total: 5/5

— US5633230A, “Treatment of cytomegalovirus infection” (priority 1994, dated 1997)
